Results published in patent publication US20240383954A1, “PEPTIDE INHIBITORS OF INTERLEUKIN-23 RECEPTOR AND THEIR USE TO TREAT INFLAMMATORY DISEASES” (Janssen Biotech, Inc., priority 2020, published 2024).
Starred links: 1 amine or outer side, 2 acyl side, 3 side chain; linkers in the order of their positions; H or OH if unused. Positions of bridges follow the written chain, without caps; N, C: chain ends. Non-standard residues stand in square brackets, D forms with d. Residues, ends and D or L forms follow the SMILES beside them. *: point of attachment. Trp(7-Me) = Cc1cccc2c(C[C@H](N)C(=O)O)c[nH]c12; Abu(4-yl) = O=C([C@H](CC[*:3])N[*:1])[*:2]; 2Nal = N[C@@H](Cc1ccc2ccccc2c1)C(=O)O; AEF = NCCOc1ccc(C[C@H](N)C(=O)O)cc1; αMeF = C[C@](N)(Cc1ccccc1)C(=O)O; αMeE = C[C@](N)(CCC(=O)O)C(=O)O; Cit = NC(=O)NCCC[C@H](N)C(=O)O; Pen = CC(C)(S)[C@H](N)C(=O)O; αMeK = C[C@](N)(CCCCN)C(=O)O; Ac5c = NC1(C(=O)O)CCCC1; Thp = NC1(C(=O)O)CCOCC1; Hexanoyl = CCCCCC(=O)*; Aib = CC(C)(N)C(=O)O; Butyryl = CCCC(=O)*; X6 = c1cc(N*)n[nH]1

Biological target: IL-23R (Homo sapiens, UniProt Q5VWK5)
Assay: cell-based
Details: PBMC pSTAT3 IC50 (nM), PBMCs from healthy donors, IL-23 5 ng/mL, 30 minutes, phosphorylated STAT3
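Also: cryopreserved PBMCs stimulated at 37 °C in 5% CO2, then lysed, with phosphorylated STAT3 quantified in lysates using a phospho-STAT panel kit.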

Sequence of IL-23R (Q5VWK5 24-629): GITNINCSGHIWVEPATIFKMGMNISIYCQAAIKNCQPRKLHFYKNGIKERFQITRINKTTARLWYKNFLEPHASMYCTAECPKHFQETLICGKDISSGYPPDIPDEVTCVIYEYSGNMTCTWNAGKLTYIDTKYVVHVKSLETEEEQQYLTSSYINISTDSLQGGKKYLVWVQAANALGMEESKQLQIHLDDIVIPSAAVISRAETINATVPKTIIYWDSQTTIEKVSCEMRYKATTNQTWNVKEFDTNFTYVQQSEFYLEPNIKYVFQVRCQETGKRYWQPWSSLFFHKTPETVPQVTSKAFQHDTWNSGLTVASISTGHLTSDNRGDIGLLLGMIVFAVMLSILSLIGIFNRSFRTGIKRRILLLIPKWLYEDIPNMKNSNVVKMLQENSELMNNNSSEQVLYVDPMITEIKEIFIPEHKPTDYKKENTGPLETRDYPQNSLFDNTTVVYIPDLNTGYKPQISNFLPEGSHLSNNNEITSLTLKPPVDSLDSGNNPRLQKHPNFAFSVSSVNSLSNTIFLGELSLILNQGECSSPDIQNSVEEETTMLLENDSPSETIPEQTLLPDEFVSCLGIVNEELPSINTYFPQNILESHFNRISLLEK
Method: Cryopreserved peripheral blood mononuclear cells (PBMCs) from healthy donors were thawed and washed twice in ImmunoCult-XF T cell expansion medium (XF-TCEM) supplemented with CTL anti-aggregate wash. […] The cells were stimulated with cytokine for 30 minutes at 37° C. in 5% CO2, transferred onto ice for 10 minutes, and lysed. Cell lysates were stored at −80° C. until phosphorylated STAT3 was measured using the phospho-STAT panel kit (Meso Scale Discovery, K15202D).

SMILES | IC50 [nM]
CC(=O)NCCCC[C@@H]1NC(=O)[C@H](Cc2c[nH]c3c(C)cccc23)NC(=O)[C@H]([C@@H](C)O)NC(=O)[C@H](CC(N)=O)NC(=O)[C@@H](NC(=O)[C@@H](CCCNC(=N)N)NC(C)=O)C(C)(C)SSC(C)(C)[C@@H](C(=O)N[C@@H](Cc2ccc(OCCN)cc2)C(=O)N[C@@H](Cc2ccc3ccccc3c2)C(=O)NC2(C(=O)N[C@@H](CCC(=O)O)C(=O)N[C@@H](CC(N)=O)C(=O)N[C@@](C)(Cc3ccccc3)C(N)=O)CCCC2)NC1=O [Compound 94, Ac-[(D)Arg]-[Pen]-N-T-[W(7-Me)]-[Lys(Ac)]-[Pen]-Phe[4-(2-aminoethoxy)]-[2-Nal]-[Acvc]-E-N-[a-MePhe]-NH2] (Ac-[dR][Pen]NT[Trp(7-Me)]K(Ac)[Pen][AEF][2Nal][Ac5c]EN[αMeF]-NH2; disulfide 2-7) | 12
CCCCCC(=O)NCCCC[C@H](NC(=O)C1(NC(=O)[C@H](Cc2ccc3ccccc3c2)NC(=O)[C@H](Cc2ccc(OCCN)cc2)NC(=O)[C@H]2NC(=O)[C@H](CCC(N)=O)NC(=O)[C@H](Cc3c[nH]c4ccccc34)NC(=O)[C@H]([C@@H](C)O)NC(=O)[C@H](CCC(N)=O)NC(=O)[C@@H](NC(=O)[C@@H](CCCNC(=N)N)NC(C)=O)C(C)(C)SSC2(C)C)CCOCC1)C(=O)N[C@@H](CC(N)=O)C(=O)N[C@@H](Cc1ccccc1)C(N)=O [Compound 59, Ac-[(D)Arg]-[Pen]-Q-T-W-Q-[Pen]-Phe[4-(2-aminoethoxy)]-[2-Nal]-[THP]-[Lys(COPent)]-N-F-NH2] (Ac-[dR][Pen]QTWQ[Pen][AEF][2Nal][Thp]K(Hexanoyl)NF-NH2; disulfide 2-7) | 67
COc1ccc(C[C@H](NC(=O)[C@H](CC(N)=O)NC(=O)[C@](C)(CCC(=O)O)NC(=O)C2(NC(=O)[C@H](Cc3ccc4ccccc4c3)NC(=O)[C@H](Cc3ccc(OCCN)cc3)NC(=O)[C@@H]3CSCC[C@H](NC(=O)[C@@H](CCCNC(=N)N)NC(C)=O)C(=O)N[C@@H](CCC(N)=O)C(=O)N[C@@H]([C@@H](C)O)C(=O)N[C@@H](Cc4c[nH]c5ccccc45)C(=O)N[C@@H](CCC(N)=O)C(=O)N3)CCOCC2)C(N)=O)cc1OC [Compound 78, Ac-[(D)Arg]-[Abu]-Q-T-W-Q-[Cys]-Phe[4-(2-aminoethoxy)]-[2-Nal]-[THP]-[aMeGlu]-N-[Phe(3,4-diOMe)]-NH2] | 31
CC(=O)NCCCC[C@@H]1NC(=O)[C@H](Cc2c[nH]c3c(C)cccc23)NC(=O)[C@H]([C@@H](C)O)NC(=O)[C@H](CC(N)=O)NC(=O)[C@@H](NC(=O)[C@@H](CCCNC(=N)N)NC(C)=O)C(C)(C)SSC(C)(C)[C@@H](C(=O)N[C@@H](Cc2ccc(OCCN)cc2)C(=O)N[C@@H](Cc2ccc3ccccc3c2)C(=O)NC2(C(=O)N[C@@H](CCC(=O)O)C(=O)N[C@@H](CC(N)=O)C(=O)NC3(C(N)=O)CCOCC3)CCCC2)NC1=O [Compound 101, Ac-[(D)Arg]-[Pen]-N-T-[W(7-Me)]-[Lys(Ac)]-[Pen]-Phe[4-(2-aminoethoxy)]-[2-Nal]-[Acvc]-E-N-[THP]-NH2] (Ac-[dR][Pen]NT[Trp(7-Me)]K(Ac)[Pen][AEF][2Nal][Ac5c]EN[Thp]-NH2; disulfide 2-7) | 0.74
CC(=O)NCCCC[C@H](NC(=O)C1(NC(=O)[C@H](Cc2ccc3ccccc3c2)NC(=O)[C@H](Cc2ccc(OCCN)cc2)NC(=O)[C@H]2NC(=O)[C@H](CCC(N)=O)NC(=O)[C@H](Cc3c[nH]c4ccccc34)NC(=O)[C@H]([C@@H](C)O)NC(=O)[C@H](CCC(N)=O)NC(=O)[C@@H](NC(=O)[C@@H](CCCNC(=N)N)NC(C)=O)C(C)(C)SSC2(C)C)CCOCC1)C(=O)N[C@@H](CC(N)=O)C(=O)NC1(C(N)=O)CCOCC1 [Compound 56, Ac-[(D)Arg]-[Pen]-Q-T-W-Q-[Pen]-Phe[4-(2-aminoethoxy)]-[2-Nal]-[THP]-[Lys(Ac)]-N-[THP]-NH2] | 4.9
CCC(=O)NCCCC[C@H](NC(=O)C1(NC(=O)[C@H](Cc2ccc3ccccc3c2)NC(=O)[C@H](Cc2ccc(OCCN)cc2)NC(=O)[C@H]2NC(=O)[C@H](CCC(N)=O)NC(=O)[C@H](Cc3c[nH]c4ccccc34)NC(=O)[C@H]([C@@H](C)O)NC(=O)[C@H](CCC(N)=O)NC(=O)[C@@H](NC(=O)[C@@H](CCCNC(=N)N)NC(C)=O)C(C)(C)SSC2(C)C)CCOCC1)C(=O)N[C@@H](CC(N)=O)C(=O)NC1(C(N)=O)CCOCC1 [Compound 57, Ac-[(D)Arg]-[Pen]-Q-T-W-Q-[Pen]-Phe[4-(2-aminoethoxy)]-[2-Nal]-[THP]-[Lys(COEt)]-N-[THP]-NH2] | 18
COc1ccc(C[C@H](NC(=O)[C@@H]2CSCC[C@H](NC(=O)[C@H](N)CCCNC(=N)N)C(=O)N[C@@H](CCC(N)=O)C(=O)N[C@@H]([C@@H](C)O)C(=O)N[C@@H](Cc3c[nH]c4ccccc34)C(=O)N[C@@H](CCC(N)=O)C(=O)N2)C(=O)N[C@@H](Cc2ccc3ccccc3c2)C(=O)NC2(C(=O)N[C@@H](CCC(=O)O)C(=O)N[C@@H](CC(N)=O)C(=O)NC3(C(N)=O)CCOCC3)CCOCC2)cc1 [Compound 22, [(D)Arg]-[Abu]-Q-T-W-Q-[Cys]-[Phe(4-OMe)]-[2-Nal]-[THP]-E-N-[THP]-NH2] | 22
CC(=O)NCCCC[C@@H]1NC(=O)[C@H](Cc2c[nH]c3ccccc23)NC(=O)[C@H]([C@@H](C)O)NC(=O)[C@H](CC(N)=O)NC(=O)[C@@H](NC(=O)[C@@H](CCCNC(=N)N)NC(C)=O)C(C)(C)SSC(C)(C)[C@@H](C(=O)N[C@@H](Cc2ccc(OCCN)cc2)C(=O)N[C@@H](Cc2ccc3ccccc3c2)C(=O)NC2(C(=O)N[C@@H](CCC(=O)O)C(=O)N[C@@H](CC(N)=O)C(=O)NC3(C(N)=O)CCOCC3)CCOCC2)NC1=O [Compound 105, Ac-[(D)Arg]-[Pen]-N-T-W-[Lys(Ac)]-[Pen]-Phe[4-(2-aminoethoxy)]-[2-Nal]-[THP]-E-N-[THP]-NH2] (Ac-[dR][Pen]NTWK(Ac)[Pen][AEF][2Nal][Thp]EN[Thp]-NH2; disulfide 2-7) | 2.2
CC(=O)N[C@H](CCCNC(=N)N)C(=O)N[C@H]1CCSC[C@@H](C(=O)N[C@@H](Cc2ccc(OCCN)cc2)C(=O)N[C@@H](Cc2ccc3ccccc3c2)C(=O)NC2(C(=O)N[C@@](C)(CCC(=O)O)C(=O)N[C@@H](CC(N)=O)C(=O)N[C@@H](Cc3ccccc3)C(=O)NC(C)(C)C(=O)N[C@@](C)(CCCCN)C(N)=O)CCOCC2)NC(=O)[C@H](CCC(N)=O)NC(=O)[C@H](Cc2c[nH]c3ccccc23)NC(=O)[C@H]([C@@H](C)O)NC(=O)[C@H](CCC(N)=O)NC1=O [Compound 43, Ac-[(D)Arg]-[Abu]-Q-T-W-Q-[Cys]-Phe[4-(2-aminoethoxy)]-[2-Nal]-[THP]-[aMeGlu]-N-F-[Aib]-[a-MeLys]-NH2] (Ac-[dR][Abu(4-yl)]QTWQC[AEF][2Nal][Thp][αMeE]NF[Aib][αMeK]-NH2; thioether 2-7) | 8.2
CC(=O)NCCCC[C@H](NC(=O)[C@](C)(CCCCN)NC(=O)[C@H](Cc1ccc2ccccc2c1)NC(=O)[C@H](Cc1ccc(OCCN)cc1)NC(=O)[C@H]1NC(=O)[C@H](CCC(N)=O)NC(=O)[C@H](Cc2c[nH]c3c(C)cccc23)NC(=O)[C@H]([C@@H](C)O)NC(=O)[C@H](CC(N)=O)NC(=O)[C@@H](NC(C)=O)C(C)(C)SSC1(C)C)C(=O)N[C@@H](CC(N)=O)C(=O)N[C@@](C)(Cc1ccccc1)C(N)=O [Compound 89, Ac-[Pen]-N-T-[W(7-Me)]-Q-[Pen]-Phe[4-(2-aminoethoxy)]-[2-Nal]-[a-MeLys]-[Lys(Ac)]-N-[a-MePhe]-NH2] | 12
CCCC(=O)NCCCC[C@H](NC(=O)C1(NC(=O)[C@H](Cc2ccc3ccccc3c2)NC(=O)[C@H](Cc2ccc(OCCN)cc2)NC(=O)[C@H]2NC(=O)[C@H](CCC(N)=O)NC(=O)[C@H](Cc3c[nH]c4ccccc34)NC(=O)[C@H]([C@@H](C)O)NC(=O)[C@H](CCC(N)=O)NC(=O)[C@@H](NC(=O)[C@@H](CCCNC(=N)N)NC(C)=O)C(C)(C)SSC2(C)C)CCOCC1)C(=O)N[C@@H](CC(N)=O)C(=O)N[C@@H](Cc1ccccc1)C(N)=O [Compound 58, Ac-[(D)Arg]-[Pen]-Q-T-W-Q-[Pen]-Phe[4-(2-aminoethoxy)]-[2-Nal]-[THP]-[Lys(COPr)]-N-F-NH2] (Ac-[dR][Pen]QTWQ[Pen][AEF][2Nal][Thp]K(Butyryl)NF-NH2; disulfide 2-7) | 35
CC(=O)NCCCC[C@H](NC(=O)[C@](C)(CCCCN)NC(=O)[C@H](Cc1ccc2ccccc2c1)NC(=O)[C@H](Cc1ccc(OCCN)cc1)NC(=O)[C@H]1NC(=O)[C@H](CCCNC(N)=O)NC(=O)[C@H](Cc2c[nH]c3c(C)cccc23)NC(=O)[C@H]([C@@H](C)O)NC(=O)[C@H](CC(N)=O)NC(=O)[C@@H](NC(C)=O)C(C)(C)SSC1(C)C)C(=O)N[C@@H](CC(N)=O)C(=O)NC(C)(C)C(N)=O [Compound 302, MeCO-Pen-N-T-7MeW-Cit-Pen-AEF-2Nal-aMeK-K(Ac)-N-Aib-CONH2] (Ac-[Pen]NT[Trp(7-Me)][Cit][Pen][AEF][2Nal][αMeK]K(Ac)N[Aib]-NH2; disulfide 1-6) | 7
CC(=O)N[C@H](CCCNC(=N)N)C(=O)N[C@@H]1C(=O)N[C@@H](CCC(N)=O)C(=O)N[C@@H]([C@@H](C)O)C(=O)N[C@@H](Cc2c[nH]c3ccccc23)C(=O)N[C@@H](CCC(N)=O)C(=O)N[C@H](C(=O)N[C@@H](Cc2ccc(OCCN)cc2)C(=O)N[C@@H](Cc2ccc3ccccc3c2)C(=O)NC2(C(=O)N[C@@H](CCC(=O)O)C(=O)N[C@@H](CC(N)=O)C(=O)N[C@@H](CC(=O)Nc3cc[nH]n3)C(N)=O)CCOCC2)C(C)(C)SSC1(C)C [Compound 133, Ac-[(D)Arg]-[Pen]-Q-T-W-Q-[Pen]-Phe[4-(2-aminoethoxy)]-[2-Nal]-[THP]-E-N-[(N-(3-Pyz))Asn]-NH2] (Ac-[dR][Pen]QTWQ[Pen][AEF][2Nal][Thp]END(X6)-NH2; disulfide 2-7) | 21
CC(=O)NCCCC[C@@H]1NC(=O)[C@H](Cc2c[nH]c3ccccc23)NC(=O)[C@H]([C@@H](C)O)NC(=O)[C@H](CCC(N)=O)NC(=O)[C@@H](NC(C)=O)C(C)(C)SSC(C)(C)[C@@H](C(=O)N[C@@H](Cc2ccc(OCCN)cc2)C(=O)N[C@@H](Cc2ccc3ccccc3c2)C(=O)N[C@@](C)(CCCCN)C(=O)N[C@@H](CCCCNC(C)=O)C(=O)N[C@@H](CC(N)=O)C(=O)NC2(C(N)=O)CCOCC2)NC1=O [Compound 84, Ac-[Pen]-Q-T-W-[Lys(Ac)]-[Pen]-Phe[4-(2-aminoethoxy)]-[2-Nal]-[a-MeLys]-[Lys(Ac)]-N-[THP]-NH2] (Ac-[Pen]QTWK(Ac)[Pen][AEF][2Nal][αMeK]K(Ac)N[Thp]-NH2; disulfide 1-6) | 54
